# Reference: patent publication US6100254A, “Inhibitors of protein tyrosine kinases” (Board of Regents, The University of Texas System, priority 1997, dated 2000)
# Counter-ions that a name gives are not always drawn. *1 amine or outer side, *2 acyl side, *3 side chain or, on linkers, in order; H or OH if unused. Where a SMILES comes first, the peptide text is derived from it. Bridges are numbered along the chain shown (N, C = ends). Roman numbers before positions name the chains, in order. [ ]: non-standard residue; d: D form. Actinocin(9to1) = Cc1c2oc3c(C)ccc(C(=O)[*:1])c3nc-2c(C(=O)[*:2])c(N)c1=O; NMeV = CN[C@H](C(=O)O)C(C)C; Sar = CNCC(=O)O
# How the values were obtained:
# [1] = oral administration, multiple myeloma; cited from earlier work
# [2] = cited from earlier work; for elimination half-life: intravenous
# [3] = previously untreated chronic myelogenous leukemia; cited from earlier work
# [4] = target: T1, Src (Homo sapiens, UniProt P12931); test: Src tyrosine kinase activity, poly E4Y and 32P-ATP; format: biochemical; settings: for Ki: Table 10, benzodiazepines as inhibitors of Src
# T1 construct: made in house; host or cells: baculovirus-insect cell system
# Method: The compounds within the library were screened at a concentration of 100 μM using the following assay procedure. A 10 μL aliquot of poly(Glu:Tyr, 4:1) to final concentration of 200 μg/mL, 20 μL of benzodiazepine to be tested, 10 μL of purified Src and 10 μL of [gamma-^32 P]-ATP-MgCl2 cocktail (final concentration of 0.2 mM ATP; specific activity of 600 dpm/pmol, and 6 mM MgCl2) were mixed and incubated in 0.5 mL test tubes at ambient temperature. After 30 min, a 35 μL aliquot was spotted onto a 1×1 inch 3 MM filter paper and dropped into a 5% TCA bath at 60° C. The filter papers were washed 3 times with 5% TCA and air dried. The filter papers were then placed into a vial, 3 mL scintillation cocktail added, and analyzed by liquid scintillation counting.
# (§1) The tyrosine kinase activity of Src, Lck (p56^lck), Csk (C-Src kinase), Abl (Bcr-Abl catalytic domain), and the FGFr (fibroblast growth factor receptor catalytic domain), was determined using poly E4 Y and ^32 P-ATP.
# [5] = target: FGFr (fibroblast growth factor receptor catalytic domain); test: FGFr tyrosine kinase activity, poly E4Y and 32P-ATP; format: biochemical, human
# Source text: (§2) The genes encoding Csk, Lck, Abl, and the FGF receptor have all been cloned. The genes encoding Csk, Abl, and the FGF receptor were cloned from humans, and the genes encoding Lck were cloned from a mouse. Recombinant Csk, Lck, Abl, and the FGFr were expressed as glutathione-S-transferase fusion proteins using the pGEX expression vector and E. coli, and purified as described (Sun et al., 1995).
# (§3) Recombinant Src was expressed using the baculovirus-insect cell system and purified as published (Budde et al, 1993). Recombinant Csk, Lck, Abl, and the FGFr were expressed as glutathione-S-transferase fusion proteins using the pGEX expression vector and E. coli, and purified as described (Sun and Budde, 1995).
# as §1
# [6] = target: T2, Csk (C-Src kinase) (Homo sapiens, UniProt P41240); test: Csk tyrosine kinase activity, poly E4Y and 32P-ATP; format: biochemical
# T2 construct: glutathione-S-transferase (GST) (N); made in house; host or cells: E. coli
# Source text: as §2, §3, §1
# [7] = tested on: AFB-13 normal human fibroblasts; test: Growth of AFB-13 cells, control for cellular toxicity; format: cell-based
# Method: (§4) For these assays 2×10^4 cells are plated in 24 well multiwell tissue culture dishes, in 1 ml of DME/F12 media supplemented with 5% fetal bovine serum. After 24 h, media is replaced with fresh media containing the concentration of inhibitor to be tested, or no inhibitor as a control. Cells are counted 1, 3, and 5 days subsequent to addition of inhibitor. For the day 5 counts, media with fresh inhibitor is used to replace spent media after day 3. […] For counting viable cells, cultures are trypsinized, stained with trypan blue, and cell number determined by counting under light microscopy with the use of a hemacytometer. Benzodiazepine derivatives were tested at their maximally soluble concentrations in 0.1% DMSO diluted with tissue culture medium, and serial dilutions were made thereof. Every concentration tested was performed in triplicate, in identical wells under identical assay conditions.
# [8] = tested on: HT-29 colon adenocarcinoma cells; test: Anchorage-independent growth, soft agar colony formation; format: cell-based, human
# Method: Soft agar colony formation is used to determine anchorage independent growth, an in vitro parameter which correlates well with tumorigenicity of HT 29 cells. (AFB-13 cells are unable to form soft agar colonies, a characteristic of normal cells). These assays are performed in 6 well ([…]) multiwell tissue culture dishes. The wells are underlayed with 1% low melting agarose in complete growth media, and refrigerated for 15 min. 1×10^3 HT 29 cells are then added to the wells in complete media in 0.5% low melting agarose. […] After a 24 h incubation period, 0.5 mL of media containing compound to be tested (or media alone as a control) is added to the dish. During the assay, media with or without the test compound is replenished every 3 days. Colonies estimated to contain >100 cells are counted after 14 days. For compounds that induce growth inhibition, the assay is continued to 28 days to assure that differences in colony forming ability were not due to altered growth rate of cells. For initial screening, assays are performed in duplicate for each compound to be tested, due to the large amount of inhibitor required for the length of the study.
# [9] = tested on: HT-29 colon adenocarcinoma cells; test: Growth of HT-29 cells, viable cell count; format: cell-based, human; settings: viable cell count 5 days after plating
# Method: as §4
# [10] = target: protein kinase A (PKA) (Homo sapiens, UniProt P17612); test: Enzyme panel: protein kinase A; format: biochemical
# [11] = target: T3, Lck (p56^lck) (Mus musculus, UniProt P06240); test: Lck tyrosine kinase activity, poly E4Y and 32P-ATP; format: biochemical
# T3 construct: glutathione-S-transferase (GST) (N); made in house; host or cells: E. coli
# Source text: as §2, §3, §1
# [12] = target: T4, Abl (Bcr-Abl catalytic domain) (Homo sapiens, UniProt P00519); test: Abl tyrosine kinase activity, poly E4Y and 32P-ATP; format: biochemical
# T4 construct: Abl (Bcr-Abl catalytic domain); glutathione-S-transferase (GST) (N); made in house; host or cells: E. coli
# T4 sequence (P00519 242-493 limits assumed): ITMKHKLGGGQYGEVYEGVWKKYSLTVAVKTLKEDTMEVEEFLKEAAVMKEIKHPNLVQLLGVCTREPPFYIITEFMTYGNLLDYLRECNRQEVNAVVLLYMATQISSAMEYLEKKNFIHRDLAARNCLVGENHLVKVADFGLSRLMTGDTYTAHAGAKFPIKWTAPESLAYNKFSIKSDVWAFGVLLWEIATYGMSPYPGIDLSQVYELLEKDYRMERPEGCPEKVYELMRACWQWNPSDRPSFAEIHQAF
# Source text: as §2, §3, §1
# [13] = target: hexokinase (HXK); test: Enzyme panel: hexokinase; format: biochemical
# [14] = cited from earlier work
# [15] = human, in vivo; cited from earlier work
# [16] = target: Src; settings: Table 10, published peptides as inhibitors of Src; cited from earlier work
# [17] = Homo sapiens, Fibroblast, 120 h, viable cell count 5 days after plating
# [18] = Homo sapiens, HT-29, 336 h, colonies ≥100 cells 14 days after plating
# T1 sequence (P12931 whole entry, species assumed): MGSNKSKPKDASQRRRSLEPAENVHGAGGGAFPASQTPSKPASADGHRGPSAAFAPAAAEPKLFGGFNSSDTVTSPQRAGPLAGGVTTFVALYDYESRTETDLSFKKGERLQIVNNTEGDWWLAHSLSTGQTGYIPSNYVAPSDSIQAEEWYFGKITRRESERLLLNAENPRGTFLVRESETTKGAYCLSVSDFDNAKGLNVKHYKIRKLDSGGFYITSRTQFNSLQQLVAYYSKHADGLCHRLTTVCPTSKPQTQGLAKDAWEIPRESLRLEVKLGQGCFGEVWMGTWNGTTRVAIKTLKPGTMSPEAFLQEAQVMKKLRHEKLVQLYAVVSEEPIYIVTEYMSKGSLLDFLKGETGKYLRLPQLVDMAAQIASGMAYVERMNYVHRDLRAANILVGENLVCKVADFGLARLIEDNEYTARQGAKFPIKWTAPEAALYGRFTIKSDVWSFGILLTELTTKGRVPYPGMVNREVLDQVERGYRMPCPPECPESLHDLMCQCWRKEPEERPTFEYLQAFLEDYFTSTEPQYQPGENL
# T3 sequence (P06240 whole entry): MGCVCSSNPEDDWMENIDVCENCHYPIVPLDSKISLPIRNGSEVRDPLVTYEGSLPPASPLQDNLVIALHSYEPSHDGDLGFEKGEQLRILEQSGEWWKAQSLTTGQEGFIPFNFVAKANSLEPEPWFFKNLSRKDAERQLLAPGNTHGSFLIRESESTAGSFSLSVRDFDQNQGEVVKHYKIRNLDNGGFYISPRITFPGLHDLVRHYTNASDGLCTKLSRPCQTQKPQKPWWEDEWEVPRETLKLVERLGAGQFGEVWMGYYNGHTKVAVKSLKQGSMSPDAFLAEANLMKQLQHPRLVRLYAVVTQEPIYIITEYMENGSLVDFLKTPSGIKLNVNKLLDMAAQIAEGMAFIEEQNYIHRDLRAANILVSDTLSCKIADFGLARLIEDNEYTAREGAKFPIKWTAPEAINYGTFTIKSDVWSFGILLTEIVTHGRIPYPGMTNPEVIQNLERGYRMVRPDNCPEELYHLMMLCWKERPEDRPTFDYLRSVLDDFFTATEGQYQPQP
# T2 sequence (P41240 whole entry): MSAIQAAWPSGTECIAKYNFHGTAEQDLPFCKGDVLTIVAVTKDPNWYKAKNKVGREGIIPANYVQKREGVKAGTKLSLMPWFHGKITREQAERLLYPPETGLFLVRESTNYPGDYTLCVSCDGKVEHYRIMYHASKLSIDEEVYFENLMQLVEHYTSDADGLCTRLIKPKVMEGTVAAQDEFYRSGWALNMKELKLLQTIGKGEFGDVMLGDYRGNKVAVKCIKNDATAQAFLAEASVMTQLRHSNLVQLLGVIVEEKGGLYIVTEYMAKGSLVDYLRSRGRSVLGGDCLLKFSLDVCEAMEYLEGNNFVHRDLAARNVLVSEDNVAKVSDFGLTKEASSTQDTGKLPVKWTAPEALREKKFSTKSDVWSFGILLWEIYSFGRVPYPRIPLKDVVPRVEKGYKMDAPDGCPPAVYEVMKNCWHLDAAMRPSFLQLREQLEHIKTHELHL
compound,measurement,setting,value
4-[bis(2-chloroethyl)amino]-L-phenylalanine [Melphalan],patients showing a favorable response,[1],one third to one half
"Cc1c2oc3c(C)ccc(C(=O)N[C@@H]4C(=O)N[C@H](C(C)C)C(=O)N5CCC[C@H]5C(=O)N(C)CC(=O)N(C)[C@@H](C(C)C)C(=O)O[C@@H]4C)c3nc-2c(C(=O)N[C@@H]2C(=O)N[C@H](C(C)C)C(=O)N3CCC[C@H]3C(=O)N(C)CC(=O)N(C)[C@@H](C(C)C)C(=O)O[C@@H]2C)c(N)c1=O [Actinomycin D] (I: T[dV]P[Sar][NMeV] / II: T[dV]P[Sar][NMeV]; ester I:1-I:C, II:1-II:C; linker I:N-II:N via Actinocin(9to1))",dose excreted intact into the bile,[2]; in vivo,Half
same,passage of the blood-brain barrier,[2]; in vivo,does not pass the blood-brain barrier
"CS(=O)(=O)OCCCCOS(C)(=O)=O [Busulfan, 1,4-butanediol dimethanesulfonate]",adults obtaining hematologic remission,[3],Approximately 90%
"O=C(O)CCCc1ccc(N(CCCl)CCCl)cc1 [Chlorambucil, 4-[bis(2-chlorethyl)amino]benzenebutanoic acid]",terminal half-life of the parent drug,[2]; single oral doses of 0.6-[…],1.5 h
N.N.[Cl][Pt][Cl] [Cisplatin],oral absorption,[2]; in vivo,not absorbed orally
"O=C1[C@@H](Cc2ccc(O)cc2)N=C(c2ccc(O)cc2)c2cc(Cl)ccc2N1Cc1ccc(-c2ccccc2)cc1 [D-Tyr,BnzPh, 7-chloro-1,3-dihydro-1-(-4-biphenylmethyl)-3-(-4-hydroxyphenylmethyl)-5-(4-hydroxyphenyl)-(2H)1,4-benzodiazepin-2-one]",IC50,[4],97 µM
same,Ki,[4],43 µM
same,IC50,[5],335 µM
same,IC50,[6],404 µM
same,activity at 3 µM,[7]; [17],89 ± 6%
same,activity at 16 µM,"[7]; Homo sapiens, Fibroblast, 120 h, 16 μM, viable cell count 5 days after plating",100 ± 4%
same,activity at 32 µM,"[7]; Homo sapiens, Fibroblast, 120 h, 32 μM, viable cell count 5 days after plating",100 ± 7%
same,activity at 3 µM,[8]; [18],94%
same,activity at 16 µM,"[8]; Homo sapiens, HT-29, 336 h, 16 μM, colonies ≥100 cells 14 days after plating",90%
same,activity at 32 µM,"[8]; Homo sapiens, HT-29, 336 h, 32 μM, colonies ≥100 cells 14 days after plating",100%
same,HT-29 Growth,[9]; 32 μM,cytotoxic
same,activity at 3 µM,"[9]; Homo sapiens, HT-29, 120 h",94 ± 9%
same,activity at 16 µM,"[9]; Homo sapiens, HT-29, 120 h, 16 μM",74 ± 5%
same,IC50,[10],54 µM
same,IC50,[11],640 µM
"COc1cccc2c1C(=O)c1c(O)c3c(c(O)c1C2=O)C[C@@](O)(C(C)=O)C[C@@H]3O[C@H]1C[C@H](N)[C@H](O)[C@H](C)O1 [Daunorubicin, 5,12-Naphthacenedione, (8S-cis)-8-acetyl-10-[(3-amino-2,3,6-trideoxy-α-L-lyxo-hexanopyranosyl)oxy]-7,8,9,10-tetrahydro-6,8,11-trihydroxy-10-methoxy-, hydrochloride]",oral absorption,[2]; in vivo,poor
same,elimination half-life,[2],about 19 hr
"COc1cccc2c1C(=O)c1c(O)c3c(c(O)c1C2=O)C[C@@](O)(C(=O)CO)C[C@@H]3O[C@H]1C[C@H](N)[C@H](O)[C@H](C)O1 [Doxorubicin, 5,12-Naphthacenedione, (8s-cis)-10-[(3-amino-2,3,6-trideoxy-α-L-lyxo-hexopyranosyl)oxy]-7,8,9,10-tetrahydro-6,8,11-trihydroxy-8-(hydroxyacetyl)-1-methoxy-hydrochloride]",oral absorption,[2]; in vivo,absorbed poorly
same,secreted into the bile,[2]; in vivo,Forty to 50
same,elimination half-life,[2],about 30 hr
"O=C1[C@H](Cc2ccc(O)cc2)N=C(c2ccc(O)cc2)c2cc(Cl)ccc2N1Cc1ccccc1 [L-Tyr,Bnz]",IC50,[4],190 µM
same,Ki,[4],74 µM
same,IC50,[12],931 µM
same,IC50,[5],418 µM
same,IC50,[6],404 µM
same,activity at 3 µM,[7]; [17],100 ± 4%
same,activity at 15 µM,"[7]; Homo sapiens, Fibroblast, 120 h, 15 μM, viable cell count 5 days after plating",92 ± 6%
same,activity at 30 µM,"[7]; Homo sapiens, Fibroblast, 120 h, 30 μM, viable cell count 5 days after plating",92 ± 8%
same,inhibition of growth of AFB-13 normal fibroblasts,[7]; same concentrations (up to 30 μM),no inhibition
same,inhibition of colony formation of HT-29 colon adenocarcinoma cells,[8]; 30 μM,complete inhibition
same,activity at 3 µM,[8]; [18],52%
same,activity at 15 µM,"[8]; Homo sapiens, HT-29, 336 h, 15 μM, colonies ≥100 cells 14 days after plating",11%
same,activity at 30 µM,"[8]; Homo sapiens, HT-29, 336 h, 30 μM, colonies ≥100 cells 14 days after plating",0%
same,activity at 3 µM,"[9]; Homo sapiens, HT-29, 120 h",100 ± 3%
same,activity at 15 µM,"[9]; Homo sapiens, HT-29, 120 h, 15 μM",84 ± 6%
same,activity at 30 µM,"[9]; Homo sapiens, HT-29, 120 h, 30 μM",73 ± 9%
same,IC50,[10],124 µM
same,IC50,[13],352 µM
same,IC50,[11],570 µM
"O=NN(CCCl)C(=O)NC1CCCCC1 [Lomustine, 1-(2-chloro-ethyl)-3-cyclohexyl-1 nitrosourea]",radioactivity excreted as degradation products within 24 hours,"[2]; oral radioactive drug, 30 mg/m^2 to 100 mg/m^2",about half
same,solubility in absolute alcohol,[14]; absolute alcohol,70 mg per ml
same,solubility in water,[14]; water,< 0.05 mg per ml
CO[C@@]12[C@H](COC(N)=O)C3=C(C(=O)C(C)=C(N)C3=O)N1C[C@@H]1N[C@@H]12 [Mitomycin],dose excreted unchanged in the urine,[15],Approximately 10%
DRVYVHPF,Ki,[16],3100 µM
EEIYGEFE,Ki,[16],70 µM
EFEYAFF,Ki,[16],130 µM
KKSRGDYMTMQIG,Ki,[16],200 µM
RDRVYVHPF,Ki,[16],2600 µM
RRLIEDAEYAARG,Ki,[16],10000 µM
YIYGSFK,Ki,[16],1600 µM
